Results taken from patent publication US8765749B2, “1,6-disubstituted indole compounds as protein kinase inhibitors” (Korea Institute of Science and Technology, priority 2009, dated 2014).

Experiments:
A375P cells = assay: Inhibition activity against proliferation of A375P melanoma cells (MTT assay); conditions: Homo sapiens, read-out: Inhibition activity against proliferation of A375P cells (GI50, μM)
SK-MEL28 cells = assay: Inhibition activity against proliferation of SK-MEL28 melanoma cells (MTT assay); conditions: Homo sapiens, SK-MEL-28, read-out: Inhibition activity against proliferation of SK-MEL28 cells (GI50, μM)

Nc1cc(-n2ccc3ccc(-c4cccc(NC(=O)Nc5ccc(C(F)(F)F)c(Cl)c5)c4)cc32)ncn1 [Example 2, 1-(3-(1-(6-aminopyrimidin-4-yl)-1H-indol-6-yl)phenyl)-3-(3-chloro-4-(trifluoromethyl)phenyl)urea]
GI50 (A375P cells): < 10 µM
GI50 (SK-MEL28 cells): < 10 µM

Nc1cc(-n2ccc3ccc(-c4cccc(NC(=O)Nc5ccccc5F)c4)cc32)ncn1 [Example 3, 1-(3-(1-(6-aminopyrimidin-4-yl)-1H-indol-6-yl)phenyl)-3-(2-fluorophenyl)urea]
GI50 (A375P cells): < 10 µM

Nc1cc(-n2ccc3ccc(-c4cccc(NC(=O)Nc5ccc(Cl)c(Cl)c5)c4)cc32)ncn1 [Example 4, 1-(3-(1-(6-aminopyrimidin-4-yl)-1H-indol-6-yl)phenyl)-3-(3,4-dichlorophenyl)urea]
GI50 (A375P cells): < 10 µM

Nc1cc(-n2ccc3ccc(-c4cccc(NC(=O)NC5CCCCC5)c4)cc32)ncn1 [Example 5, 1-(3-(1-(6-aminopyrimidin-4-yl)-1H-indol-6-yl)phenyl)-3-cyclohexylurea]
GI50 (A375P cells): < 10 µM
GI50 (SK-MEL28 cells): < 10 µM

Nc1cc(-n2ccc3ccc(-c4cccc(NC(=O)c5ccc(Cl)c(C(F)(F)F)c5)c4)cc32)ncn1 [Example 6, N-(3-(1-(6-aminopyrimidin-4-yl)-1H-indol-6-yl)phenyl)-4-chloro-3-(trifluoromethyl)benzamide]
GI50 (A375P cells): < 10 µM
GI50 (SK-MEL28 cells): < 10 µM

Nc1cc(-n2ccc3ccc(-c4cccc(NC(=O)c5cc(N6CCOCC6)cc(C(F)(F)F)c5)c4)cc32)ncn1 [Example 7, N-(3-(1-(6-aminopyrimidin-4-yl)-1H-indol-6-yl)phenyl)-3-morpholino-5-(trifluoromethyl)benzamide]
GI50 (A375P cells): < 10 µM
GI50 (SK-MEL28 cells): < 10 µM

Cc1cn(-c2cc(C(=O)Nc3cccc(-c4ccc5ccn(-c6cc(N)ncn6)c5c4)c3)cc(C(F)(F)F)c2)cn1 [Example 8, N-(3-(1-(6-aminopyrimidin-4-yl)-1H-indol-6-yl)phenyl)-3-(4-methyl-1H-imidazol-1-yl)-5-(trifluoromethyl)benzamide]
GI50 (A375P cells): < 10 µM
GI50 (SK-MEL28 cells): < 10 µM

CC(C)(C#N)c1cccc(C(=O)Nc2cccc(-c3ccc4ccn(-c5cc(N)ncn5)c4c3)c2)c1 [Example 9, N-(3-(1-(6-aminopyrimidin-4-yl)-1H-indol-6-yl)phenyl)-3-(2-cyanopropan-2-yl)benzamide]
GI50 (A375P cells): < 10 µM
GI50 (SK-MEL28 cells): < 10 µM

COc1ccc(-c2ccc(C(=O)Nc3cccc(-c4ccc5ccn(-c6cc(N)ncn6)c5c4)c3)o2)cc1 [Example 10, N-(3-(1-(6-aminopyrimidin-4-yl)-1H-indol-6-yl)phenyl)-5-(4-methoxyphenyl)furan-2-carboxamide]
GI50 (A375P cells): < 10 µM

Nc1cc(-n2ccc3ccc(-c4cccc(NC(=O)c5ccc(-c6cc(C(F)(F)F)ccc6Cl)o5)c4)cc32)ncn1 [Example 11]
GI50 (A375P cells): < 10 µM

Cc1cc(C(=O)Nc2cccc(-c3ccc4ccn(-c5cc(N)ncn5)c4c3)c2)c(C)o1 [Example 12, N-(3-(1-(6-aminopyrimidin-4-yl)-1H-indol-6-yl)phenyl)-2,5-dimethylfuran-3-carboxamide]
GI50 (A375P cells): < 10 µM

Cc1cc(C(=O)Nc2cccc(-c3ccc4ccn(-c5cc(N)ncn5)c4c3)c2)no1 [Example 13, N-(3-(1-(6-aminopyrimidin-4-yl)-1H-indol-6-yl)phenyl)-5-methylisoxazol-3-carboxamide]
GI50 (A375P cells): < 10 µM
GI50 (SK-MEL28 cells): < 10 µM

Nc1cc(-n2ccc3ccc(-c4cccc(NC(=O)c5cc(-c6ccc(Cl)cc6)on5)c4)cc32)ncn1 [Example 14, N-(3-(1-(6-aminopyrimidin-4-yl)-1H-indol-6-yl)phenyl)-5-(4-chlorophenyl)isoxazol-3-carboxamide]
GI50 (A375P cells): < 10 µM

Nc1cc(-n2ccc3ccc(-c4cccc(NC(=O)c5cscn5)c4)cc32)ncn1 [Example 15, N-(3-(1-(6-aminopyrimidin-4-yl)-1H-indol-6-yl)phenyl)thiazol-4-carboxamide]
GI50 (A375P cells): < 10 µM

Nc1cc(-n2ccc3ccc(-c4cccc(NC(=O)c5csc(-c6ccncc6)n5)c4)cc32)ncn1 [Example 16, N-(3-(1-(6-aminopyrimidin-4-yl)-1H-indol-6-yl)phenyl)-2-(pyridin-4-yl)thiazol-4-carboxamide]
GI50 (A375P cells): < 10 µM

Nc1cc(-n2ccc3ccc(-c4cccc(NC(=O)c5cnn(-c6ccccc6)c5C(F)(F)F)c4)cc32)ncn1 [Example 17, N-(3-(1-(6-aminopyrimidin-4-yl)-1H-indol-6-yl)phenyl)-1-phenyl-5-(trifluoromethyl)-1H-pyrazol-4-carboxamide]
GI50 (A375P cells): < 10 µM

Nc1cc(-n2ccc3ccc(-c4cccc(NC(=O)c5ccc(Br)s5)c4)cc32)ncn1 [Example 18, N-(3-(1-(6-aminopyrimidin-4-yl)-1H-indol-6-yl)phenyl)-5-bromothiophen-2-carboxamide]
GI50 (A375P cells): < 10 µM

CN1CCC(Oc2ccc(C(=O)Nc3cccc(-c4ccc5ccn(-c6cc(N)ncn6)c5c4)c3)cc2C(F)(F)F)CC1 [Example 19, N-(3-(1-(6-aminopyrimidin-4-yl)-1H-indol-6-yl)phenyl)-4-(1-methylpiperidin-4-yloxy)-3-(trifluoromethyl)benzamide]
GI50 (A375P cells): < 10 µM

Cc1ccc(S(=O)(=O)Nc2cccc(-c3ccc4ccn(-c5cc(N)ncn5)c4c3)c2)cc1 [Example 20, N-(3-(1-(6-aminopyrimidin-4-yl)-1H-indol-6-yl)phenyl)-4-methylbenzenesulfonamide]
GI50 (A375P cells): < 10 µM

COc1ccccc1NC(=O)Nc1cccc(-c2ccc3ccn(-c4cc(NC5CC5)ncn4)c3c2)c1 [Example 23, 1-(3-(1-(6-(cyclopropylamino)pyrimidin-4-yl)-1H-indol-6-yl)phenyl)-3-(2-methoxyphenyl)urea]
GI50 (A375P cells): < 10 µM
GI50 (SK-MEL28 cells): < 10 µM

COc1ccccc1NC(=O)Nc1cccc(-c2ccc3ccn(-c4cc(NCCN5CCOCC5)ncn4)c3c2)c1 [Example 24, 1-(2-methoxyphenyl)-3-(3-(1-(6-(2-morpholinoethylamino)pyrimidin-4-yl)-1H-indol-6-yl)phenyl)urea]
GI50 (A375P cells): < 10 µM
GI50 (SK-MEL28 cells): < 10 µM

COc1ccccc1NC(=O)Nc1cccc(-c2ccc3ccn(-c4ccnc(N)n4)c3c2)c1 [Example 25, 1-(3-(1-(2-aminopyrimidin-4-yl)-1H-indol-6-yl)phenyl)-3-(2-methoxyphenyl)urea]
GI50 (A375P cells): < 10 µM
GI50 (SK-MEL28 cells): < 10 µM

O=C(Nc1cccc(-c2ccc3ccn(-c4cc(NC(=O)C5CC5)ncn4)c3c2)c1)Nc1ccccc1F [Example 27, N-(6-(6-(3-(3-(2-fluorophenyl)ureido)phenyl)-1H-indol-1-yl)pyrimidin-4-yl)cyclopropanecarboxamide]
GI50 (A375P cells): < 10 µM

O=C(Nc1cccc(-c2ccc3ccn(-c4cc(NC(=O)C5CC5)ncn4)c3c2)c1)Nc1ccc(Cl)c(Cl)c1 [Example 28, N-(6-(6-(3-(3-(3,4-dichlorophenyl)ureido)phenyl)-1H-indol-1-yl)pyrimidin-4-yl)cyclopropanecarboxamide]
GI50 (A375P cells): < 10 µM

O=C(Nc1cccc(-c2ccc3ccn(-c4cc(NC(=O)C5CC5)ncn4)c3c2)c1)NC1CCCCC1 [Example 29, N-(6-(6-(3-(3-cyclohexylureido)phenyl)-1H-indol-1-yl)pyrimidin-4-yl)cyclopropanecarboxamide]
GI50 (A375P cells): < 10 µM

O=C(Nc1cccc(-c2ccc3ccn(-c4cc(NC(=O)C5CC5)ncn4)c3c2)c1)c1ccc(Cl)c(C(F)(F)F)c1 [Example 30, 4-chloro-N-(3-(1-(6-(cyclopropanecarboxamido)pyrimidin-4-yl)-1H-indol-6-yl)phenyl)-3-(trifluoromethyl)benzamide]
GI50 (A375P cells): < 10 µM

O=C(Nc1cccc(-c2ccc3ccn(-c4cc(NC(=O)C5CC5)ncn4)c3c2)c1)c1cc(N2CCOCC2)cc(C(F)(F)F)c1 [Example 31, N-(3-(1-(6-(cyclopropanecarboxamido)pyrimidin-4-yl)-1H-indol-6-yl)phenyl)-3-morpholino-5-(trifluoromethyl)benzamide]
GI50 (A375P cells): < 10 µM

Cc1cn(-c2cc(C(=O)Nc3cccc(-c4ccc5ccn(-c6cc(NC(=O)C7CC7)ncn6)c5c4)c3)cc(C(F)(F)F)c2)cn1 [Example 32, N-(3-(1-(6-(cyclopropanecarboxamido)pyrimidin-4-yl)-1H-indol-6-yl)phenyl)-3-(4-methyl-1H-imidazol-1-yl)-5-(trifluoromethyl)benzamide]
GI50 (A375P cells): < 10 µM

CC(C)(C#N)c1cccc(C(=O)Nc2cccc(-c3ccc4ccn(-c5cc(NC(=O)C6CC6)ncn5)c4c3)c2)c1 [Example 33, 3-(2-cyanopropan-2-yl)-N-(3-(1-(6-(cyclopropanecarboxamido)pyrimidin-4-yl)-1H-indol-6-yl)phenyl)benzamide]
GI50 (A375P cells): < 10 µM

COc1ccccc1NC(=O)Nc1ccc(C)c(-c2ccc3ccn(-c4cc(NC(=O)C5CC5)ncn4)c3c2)c1 [Example 35, N-(6-(6-(5-(3-(2-methoxyphenyl)ureido)-2-methylphenyl)-1H-indol-1-yl)pyrimidin-4-yl)cyclopropanecarboxamide]
GI50 (A375P cells): < 10 µM

COc1ccccc1NC(=O)Nc1cccc(-c2ccc3ccn(-c4ncnc5[nH]ccc45)c3c2)c1 [Example 36, 1-(3-(1-(7H-pyrrolo[2,3-d]pyrimidin-4-yl)-1H-indol-6-yl)phenyl)-3-(2-methoxyphenyl)urea]
GI50 (A375P cells): < 10 µM
GI50 (SK-MEL28 cells): < 10 µM

O=C(Nc1cccc(-c2ccc3ccn(-c4ncnc5[nH]ccc45)c3c2)c1)c1ccc(Cl)c(C(F)(F)F)c1 [Example 37, N-(3-(1-(7H-pyrrolo[2,3-d]pyrimidin-4-yl)-1H-indol-6-yl)phenyl)-4-chloro-3-(trifluoromethyl)benzamide]
GI50 (A375P cells): < 10 µM
